Results: paper PMC12655351, “Synthesis and Anticancer Activity Evaluation of New 5-((5-Nitrofuran-2-yl)allylidene)-2-thioxo-4-thiazolidinones” (Pharmaceuticals, 2025)

Assays:
[1] = test system: caspase-9 in MDA-MB-231 cells; assay: FLICA caspase-9 flow cytometry; type: cell-based, human; details: MDA-MB-231, 24 h, concentration not given
Protocol: To further analyze the compounds’ effects on the intrinsic pathway of the process of programmed cell death, it was decided to assess the expression of initiator caspase-9 on MCF-7 and MDA-MB-231 cell lines after 24 h of treatment using the flow cytometry method. Caspase-9 is an initiator caspase that directly activates executive caspase-3; as such, it has a significant effect on apoptosis. […] For the MDA-MB-231 line, the results were even more prominent, with every tested compound and concentration displaying a notable increase in cells with active caspase-9.
To determine the effects of the novel compounds on the caspase-9 activity, the FLICA Caspase-9 Assay Kit was applied (ImmunoChemistry Technologies, Bloomington, MN, USA). MCF-7 and MDA-MB-231 cells were seeded on 6-well plates (5 × 10^5 cells per well) and incubated for 24 h. Next, they were treated with tested compounds 2b, 12b, and 14b in a concentration of 1 and 5 µM for the MCF-7 cell line and 5 and 10 µM for the MDA-MB-231 cell line and the reference drug, doxorubicin hydrochloride, in a concentration of 1 and 5 µM for both lines for 24 h. […] Prepared samples were evaluated by a BD FACSCanto II flow cytometer (Becton Dickinson Biosciences, San Jose, CA, USA). For each sample, 1 × 10^4 events were analyzed. […]

HOP-92 = details: human, 48 h
M14 = details: human, 48 h
[2] = test system: cytochrome C in MDA-MB-231 cells; assay: cytochrome C ELISA; type: cell-based, human; details: MDA-MB-231, 10 μM, 24 h
Protocol: (§1) The influence of the examined compounds on the level of cytochrome C, one of the crucial proteins of the intrinsic pathway of programmed cell death, was assessed. This protein is released into the cytoplasm from the mitochondrial intermembrane space as a result of the decrease in mitochondrial membrane potential. […] The most significant result was reported for compound 14b at a concentration of 5 μM in the MCF-7 cell line and 10 µM in the MDA-MB-231 cell line, where the concentration of cytochrome C was 9.54 ng/mL and 15.26 ng/mL, respectively (Figure 10).
(§2) Using a SimpleStep ELISA kit (Abcam, Cambridge, UK), we determined the levels of cytochrome C and caspase-3 in cells’ lysates with 2b, 12b, and 14b (1 and 5 μM for the MCF-7 cell line and 5 and 10 μM for the MDA-MB-231) and doxorubicin in concentrations of 1 and 5 μM for both lines after 24 h incubation. Assays were performed according to the manufacturer’s protocols.

[3] = test system: cytochrome C in MCF-7 cells; assay: cytochrome C ELISA; type: cell-based, human; details: MCF-7, 5 μM, 24 h
Protocol: as §1, §2

MDA-MB-468 = details: human, 48 h
U251 = details: human, 48 h
caspase-3 in MCF-7 cells = assay: caspase-3 ELISA; type: cell-based, human; details: MCF-7, 1 μM, 24 h
Protocol: To confirm the activity of the caspase pathway, an effector caspase-3 was assayed on MCF-7 and MDA-MB-231 cell lines after 24 h of treatment using the ELISA method. Novel 4-thiazolidinone derivatives were tested in concentrations of 1 and 5 μM for the MCF-7 cell line and 5 and 10 μM for the MDA-MB-231 cell line.
as §2

[4] = test system: mitochondrial membrane potential (ΔΨm) of MCF-7 breast cancer cells; assay: JC-1 flow cytometry; type: cell-based, human; details: 24 h
Protocol: (§3) This method involves marking cells with fully functional mitochondria with red fluorescence due to the accumulation of the dye in hyperpolarized mitochondrial membrane. In case of a damaged membrane, the dye decomposes into monomers, emitting green fluorescence. […] For MDA-MB-231 cells, the values were as follows: 4.25% for 5 μM and 20.95% for 10 μM concentration. The obtained results signify the compound’s capability to decrease mitochondrial potential on both cell lines at a higher concentration (Figure 6).
(§4) The mitochondrial membrane potential (ΔΨm) was analyzed by using the JC-1 MitoScreen kit (BD Biosciences, San Diego, CA, USA). The tested compounds and reference drug were used in 1 and 5 µM concentrations on the MCF-7 cell line and 5 and 10 µM on the MDA-MB-231 cell line. After 24 h of incubation with the tested compounds, the assay was performed as described in the literature. The assay was performed using a flow cytometer (BD FACSCanto II, Becton Dickinson Biosciences Systems, San Jose, CA, USA), and results were obtained using FACSDiva software (version 6.1.3, BD Biosciences Systems, San Jose, CA, USA).

[5] = test system: mitochondrial membrane potential (ΔΨm) of MDA-MB-231 breast cancer cells; assay: JC-1 flow cytometry; type: cell-based, human; details: 24 h
Protocol: as §3, §4

SMILES	cells with active caspase-9 [1] [%]	CC50 (HOP-92) [µM]	CC50 (M14) [µM]	concentration of cytochrome C [2] [ng/mL]	concentration of cytochrome C [3] [ng/mL]	CC50 (MDA-MB-468) [µM]	CC50 (U251) [µM]	change of caspase-3 concentration (caspase-3 in MCF-7 cells)	Decreased Δψ (decrease in mitochondrial potential) ([4]; MCF-7, 1 μM) [%]	Decreased Δψ (decrease in mitochondrial potential) ([4]; MCF-7, 5 μM) [%]	Decreased Δψ (decrease in mitochondrial potential) ([5]; MDA-MB-231, 5 μM) [%]	Decreased Δψ (decrease in mitochondrial potential) ([5]; MDA-MB-231, 10 μM) [%]
CC(C(=O)O)N1C(=O)/C(=C/C=C/c2ccc([N+](=O)[O-])o2)SC1=S (stereo not drawn) [2b, 2-((Z)-5-((E)-3-(5-Nitrofuran-2-yl)allylidene)-4-oxo-2-thioxothiazolidin-3-yl)propanoic acid]	83.95											
O=C(O)CCCCCN1C(=O)/C(=C/C=C/c2ccc([N+](=O)[O-])o2)SC1=S [14b, 6-((Z)-5-((E)-3-(5-nitrofuran-2-yl)allylidene)-4-oxo-2-thioxothiazolidin-3-yl)hexanoic acid]		5.84	3.23	15.26	9.54	4.29	5.02	statistically significant result	8.75	20.25	4.25	20.95
